O=P1(C(Nc2ccccc2)c2ccccc2)OCC2(CO1)COP(=O)(C(Nc1ccccc1)c1ccccc1)OC2 (centres undefined)
Conditions | solubility (mole fraction)
in 1,2-dichloroethane, 283.35 K | 0.000119
in 1,2-dichloroethane, 288.25 K | 0.000127
in 1,2-dichloroethane, 293.3 K | 0.00014
in 1,2-dichloroethane, 297.95 K | 0.000153
in 1,2-dichloroethane, 303.45 K | 0.000163
in 1,2-dichloroethane, 308.35 K | 0.000176
in 1,2-dichloroethane, 313.45 K | 0.00019
in 1,2-dichloroethane, 318.25 K | 0.000208
in 1,2-dichloroethane, 323.45 K | 0.000219
in 1,2-dichloroethane, 327.95 K | 0.000231
in 1,2-dichloroethane, 333.35 K | 0.000249
in 1,2-dichloroethane, 338.15 K | 0.000271
in 1,4-dioxane, 283.15 K | 7.3e-05
in 1,4-dioxane, 288.35 K | 8.4e-05
in 1,4-dioxane, 293.25 K | 0.0001
in 1,4-dioxane, 298.35 K | 0.000121
in 1,4-dioxane, 303.15 K | 0.000146
in 1,4-dioxane, 308.25 K | 0.000176
in 1,4-dioxane, 313.45 K | 0.000202
in 1,4-dioxane, 318.65 K | 0.000248
in 1,4-dioxane, 323.55 K | 0.000286
in 1,4-dioxane, 328.25 K | 0.000332
in 1,4-dioxane, 333.2 K | 0.000417
in 1,4-dioxane, 338.3 K | 0.000479
in THF, 288.45 K | 0.00381
in THF, 293.25 K | 0.00428
in THF, 298.15 K | 0.00481
in THF, 303.15 K | 0.0053
in THF, 308.65 K | 0.00588
in THF, 313.45 K | 0.00645
in THF, 318.45 K | 0.00711
in THF, 323.55 K | 0.00788
in THF, 328.35 K | 0.00862
in THF, 333.25 K | 0.01
in THF, 338.15 K | 0.0108
in acetic acid, 298.25 K | 0.000115
in acetic acid, 303.65 K | 0.000156
in acetic acid, 308.15 K | 0.000194
in acetic acid, 313.25 K | 0.000233
in acetic acid, 318.25 K | 0.000288
in acetic acid, 323.15 K | 0.000326
in acetic acid, 328.25 K | 0.000348
in acetic acid, 333.45 K | 0.000406
in acetic acid, 338.15 K | 0.000444
in acetone, 283.35 K | 9.1e-05
in acetone, 288.25 K | 0.000101
in acetone, 293.25 K | 0.00011
in acetone, 298.3 K | 0.000123
in acetone, 303.35 K | 0.000136
in acetone, 308.45 K | 0.000151
in acetone, 313.25 K | 0.000164
in acetone, 318.55 K | 0.000183
in acetone, 323.25 K | 0.000205
in acetone, 328.35 K | 0.000221
in acetonitrile, 288.3 K | 3.6e-05
in acetonitrile, 293.2 K | 4.5e-05
in acetonitrile, 298.25 K | 5.5e-05
in acetonitrile, 303.15 K | 6.1e-05
in acetonitrile, 308.25 K | 7.6e-05
in acetonitrile, 313.2 K | 8.7e-05
in acetonitrile, 317.95 K | 9.8e-05
in acetonitrile, 323.55 K | 0.000121
in acetonitrile, 328.45 K | 0.000146
in acetonitrile, 333.15 K | 0.000169
in acetonitrile, 338.25 K | 0.000194
in benzene, 283.25 K | 3.1e-05
in benzene, 288.35 K | 4.3e-05
in benzene, 293.15 K | 6.4e-05
in benzene, 298.45 K | 8.2e-05
in benzene, 303.35 K | 9.8e-05
in benzene, 308.45 K | 0.000123
in benzene, 313.25 K | 0.000145
in benzene, 318.3 K | 0.000178
in benzene, 323.35 K | 0.000199
in benzene, 328.25 K | 0.000218
in benzene, 333.15 K | 0.000239
in benzene, 338.35 K | 0.000266
in dichloromethane, 283.25 K | 0.000164
in dichloromethane, 288.3 K | 0.000202
in dichloromethane, 293.35 K | 0.000268
in dichloromethane, 298.25 K | 0.000308
in dichloromethane, 303.35 K | 0.000342
in dichloromethane, 308.15 K | 0.000388
in dichloromethane, 313.25 K | 0.000423
in diethyl ether, 283.35 K | 5.5e-05
in diethyl ether, 288.15 K | 8.6e-05
in diethyl ether, 292.95 K | 0.000126
in diethyl ether, 298.65 K | 0.000213
in diethyl ether, 303.25 K | 0.000299
in ethanol, 288.25 K | 4e-05
in ethanol, 293.15 K | 5e-05
in ethanol, 303.25 K | 7.4e-05
in ethanol, 308.55 K | 9e-05
in ethanol, 313.45 K | 0.000113
in ethanol, 317.85 K | 0.000141
in ethanol, 323.25 K | 0.00017
in ethanol, 328.25 K | 0.0002
in ethanol, 333.25 K | 0.000243
in ethanol, 338.25 K | 0.000285
in ethanol, 343.15 K | 0.00036
in isopropanol, 283.45 K | 0.000107
in isopropanol, 287.95 K | 0.000131
in isopropanol, 293.45 K | 0.000156
in isopropanol, 298.15 K | 0.000176
in isopropanol, 303.25 K | 0.000209
in isopropanol, 308.15 K | 0.000234
in isopropanol, 313.25 K | 0.000256
in isopropanol, 318.15 K | 0.000289
in isopropanol, 323.65 K | 0.000312
in isopropanol, 328.55 K | 0.000348
in isopropanol, 333.3 K | 0.000393
in isopropanol, 338.5 K | 0.000414
in toluene, 283.15 K | 0.000765
in toluene, 288.25 K | 0.00117
in toluene, 293.25 K | 0.0015
in toluene, 298.45 K | 0.00199
in toluene, 303.15 K | 0.00238
in toluene, 308.15 K | 0.00287
in toluene, 313.45 K | 0.00344
in toluene, 318.65 K | 0.00388
in toluene, 323.25 K | 0.00449
in toluene, 328.25 K | 0.00494
in toluene, 333.25 K | 0.00542
in toluene, 338.25 K | 0.00614

— BigSolDB 2.1
